# Laboratory results reported in patent US20030203372A1, “Analysis method” (priority 2000, published 2003).
# Columns and labels:
# [1] = Hypoxia response of the referenced genes/sequences, summary in cross-reference Table 26; format: cell-based, human; details: direction of expression change of the gene/sequence in response to hypoxia
# [2] = tested on: primary human cell cultures (11 cell types); experiment: Custom gene array, 11 human cell types in normoxia or hypoxia for 6 hr and 18 hr; format: cell-based
# Protocol: Equivalent cultures of non-immortalized, non-transformed primary human cells of 10 distinct types, were cultured in either normoxia or were exposed to hypoxia for 6 hr and 18 hr, and gene expression changes were determined. […] Moreover, unlike the vast majority of information in the public domain relating to genes responsive to hypoxia, all of these cells were human and were cultured without any modifications following isolation from the human donors.
# A non-primary cell type (#9) was used to represent neurons, since primary human neurons are difficult to source. Therefore a total of 11 cell types are compared. It should be noted that RNA from hepatocytes at the […] timepoint of hypoxia was not available for this work.
# Each RNA sample was hybridised to duplicate or triplicate arrays, to ensure reproducible data, and was analysed using GeneSpring software. Data from replicate arrays were merged during analysis to generate mean values. Data normalisation was achieved per-array using the aforementioned list of control genes, such that differences in RNA labelling or hybridization due to experimental variation were corrected by referencing each gene to the mean value of the reference genes on the same array. Also, for each gene, expression values were obtained which represent the value in each experimental condition (e.g. macrophages 6 hr hypoxia) as compared to the median of value of that gene throughout the full range of experimental conditions (i.e. from all cell types). […] This is common in microarray data analysis.
substance,measurement,setting,value
Interleukin 8,Hypoxia response,[1],Increase
Monocyte chemotactic protein 1,Hypoxia response,[1],Repression
Osteopontin,Hypoxia response,[1],Increase
Vascular endothelial growth factor,Hypoxia response,[1],Increase
p1G10,mRNA expression level,"[2]; cell type #1, HY (hypoxia) 6 hr",0.61
same,mRNA expression level,"[2]; cell type #1, HY (hypoxia) 18 hr",1.52
same,mRNA expression level,"[2]; cell type #1, NO (normoxia)",1.01
same,mRNA expression level,"[2]; cell type #2, HY (hypoxia) 6 hr",1.76
same,mRNA expression level,"[2]; cell type #2, HY (hypoxia) 18 hr",1.65
same,mRNA expression level,"[2]; cell type #2, NO (normoxia)",1.69
same,mRNA expression level,"[2]; cell type #3, HY (hypoxia) 6 hr",3.58
same,mRNA expression level,"[2]; cell type #3, HY (hypoxia) 18 hr",2.49
same,mRNA expression level,"[2]; cell type #3, NO (normoxia)",2.01
same,mRNA expression level,"[2]; cell type #4, HY (hypoxia) 6 hr",1.13
same,mRNA expression level,"[2]; cell type #4, HY (hypoxia) 18 hr",0.99
same,mRNA expression level,"[2]; cell type #4, NO (normoxia)",1.32
same,mRNA expression level,"[2]; cell type #5, HY (hypoxia) 6 hr",0.65
same,mRNA expression level,"[2]; cell type #5, NO (normoxia)",0.44
same,mRNA expression level,"[2]; cell type #6, HY (hypoxia) 6 hr",0.62
same,mRNA expression level,"[2]; cell type #6, NO (normoxia)",0.44
